Experimental data from PMC12420824, “Discovery of a selective alpha-kinase 1 inhibitor for the rare genetic disease ROSAH syndrome” (Nature Communications, 2025).

Tests used:
Conditions in all cases: read-out: % Enzyme Activity (relative to DMSO control), 10 uM
CDK16/cyclin Y (PCTAIRE) = CDK16/cyclin Y (PCTAIRE) (Homo sapiens, UniProt Q00536); test: biochemical
Excerpt: (§1) Additionally, a 10-dose dilution series of staurosporine and other enzyme-appropriate compounds were included as positive control inhibitors.

COT1/MAP3K8 = COT1/MAP3K8 (Homo sapiens, UniProt P41279); test: HotSpot kinase assay
Excerpt: as §1

RIPK4 = RIPK4 (Homo sapiens, UniProt P57078); test: HotSpot kinase assay
Excerpt: as §1

TSSK3/STK22C = TSSK3/STK22C (Homo sapiens, UniProt Q96PN8); test: HotSpot kinase assay
Excerpt: as §1

CAMK1g = CAMK1g (Homo sapiens, UniProt Q96NX5); test: HotSpot kinase assay
Excerpt: as §1

RON/MST1R = RON/MST1R (Homo sapiens, UniProt Q04912); test: HotSpot kinase assay
Excerpt: as §1

LOK/STK10 = LOK/STK10 (Homo sapiens, UniProt O94804); test: HotSpot kinase assay
Excerpt: as §1

NEK2 = NEK2 (Homo sapiens, UniProt P51955); test: HotSpot kinase assay
Excerpt: as §1

TXK = TXK (Homo sapiens, UniProt P42681); test: HotSpot kinase assay
Excerpt: as §1

DMPK2 = DMPK2 (Homo sapiens, UniProt Q6DT37); test: HotSpot kinase assay
Excerpt: as §1

PHKg2 = PHKg2 (Homo sapiens, UniProt P15735); test: HotSpot kinase assay
Excerpt: as §1

Aurora B = Aurora B (Homo sapiens, UniProt Q96GD4); test: HotSpot kinase assay
Excerpt: as §1

CK1epsilon = CK1epsilon (Homo sapiens, UniProt P49674); test: HotSpot kinase assay
Excerpt: as §1

MLK3/MAP3K11 = MLK3/MAP3K11 (Homo sapiens, UniProt Q16584); test: HotSpot kinase assay
Excerpt: as §1

SIK3 = SIK3 (Homo sapiens, UniProt Q9Y2K2); test: HotSpot kinase assay
Excerpt: as §1

NEK5 = NEK5 (Homo sapiens, UniProt Q6P3R8); test: HotSpot kinase assay
Excerpt: as §1

ASK1/MAP3K5 = ASK1/MAP3K5 (Homo sapiens, UniProt Q99683); test: HotSpot kinase assay
Excerpt: as §1

DDR1 = DDR1 (Homo sapiens, UniProt Q08345); test: HotSpot kinase assay
Excerpt: as §1

MRCKa/CDC42BPA = MRCKa/CDC42BPA (Homo sapiens, UniProt Q5VT25); test: HotSpot kinase assay
Excerpt: as §1

PRKX = PRKX (Homo sapiens, UniProt P51817); test: HotSpot kinase assay
Excerpt: as §1

RSK3 = RSK3 (Homo sapiens, UniProt Q15349); test: HotSpot kinase assay
Excerpt: as §1

PBK/TOPK = PBK/TOPK (Homo sapiens, UniProt Q96KB5); test: HotSpot kinase assay
Excerpt: as §1

CK1G3 = CK1G3 (Homo sapiens, UniProt Q9Y6M4); test: HotSpot kinase assay
Excerpt: as §1

AKT2 = AKT2 (Homo sapiens, UniProt P31751); test: HotSpot kinase assay
Excerpt: as §1

SBK1 = SBK1 (Homo sapiens, UniProt Q52WX2); test: HotSpot kinase assay
Excerpt: as §1

EPHA5 = EPHA5 (Homo sapiens, UniProt P54756); test: HotSpot kinase assay
Excerpt: as §1

ERBB2/HER2 = ERBB2/HER2 (Homo sapiens, UniProt P04626); test: HotSpot kinase assay
Excerpt: as §1

CDK5/P25 = CDK5/P25 (Homo sapiens, UniProt Q00535); test: HotSpot kinase assay
Excerpt: as §1

STK32B/YANK2 = STK32B/YANK2 (Homo sapiens, UniProt Q9NY57); test: HotSpot kinase assay
Excerpt: as §1

PDK4/PDHK4 = PDK4/PDHK4 (Homo sapiens, UniProt Q16654); test: HotSpot kinase assay
Excerpt: as §1

IKKe/IKBKE = IKKe/IKBKE (Homo sapiens, UniProt Q14164); test: HotSpot kinase assay
Excerpt: as §1

PAK5 = PAK5 (Homo sapiens, UniProt Q9P286); test: HotSpot kinase assay
Excerpt: as §1

IR = IR (Homo sapiens, UniProt P06213); test: HotSpot kinase assay
Excerpt: as §1

MKK6 = MKK6 (Homo sapiens, UniProt P52564); test: HotSpot kinase assay
Excerpt: as §1

STK21/CIT = STK21/CIT (Homo sapiens, UniProt O14578); test: HotSpot kinase assay
Excerpt: as §1

GRK6 = GRK6 (Homo sapiens, UniProt P43250); test: HotSpot kinase assay
Excerpt: as §1

WEE1 = WEE1 (Homo sapiens, UniProt P30291); test: HotSpot kinase assay
Excerpt: as §1

FAK/PTK2 = FAK/PTK2 (Homo sapiens, UniProt Q05397); test: HotSpot kinase assay
Excerpt: as §1

LYN = LYN (Homo sapiens, UniProt P07948); test: HotSpot kinase assay
Excerpt: as §1

AKT2, sequence (P31751 whole entry): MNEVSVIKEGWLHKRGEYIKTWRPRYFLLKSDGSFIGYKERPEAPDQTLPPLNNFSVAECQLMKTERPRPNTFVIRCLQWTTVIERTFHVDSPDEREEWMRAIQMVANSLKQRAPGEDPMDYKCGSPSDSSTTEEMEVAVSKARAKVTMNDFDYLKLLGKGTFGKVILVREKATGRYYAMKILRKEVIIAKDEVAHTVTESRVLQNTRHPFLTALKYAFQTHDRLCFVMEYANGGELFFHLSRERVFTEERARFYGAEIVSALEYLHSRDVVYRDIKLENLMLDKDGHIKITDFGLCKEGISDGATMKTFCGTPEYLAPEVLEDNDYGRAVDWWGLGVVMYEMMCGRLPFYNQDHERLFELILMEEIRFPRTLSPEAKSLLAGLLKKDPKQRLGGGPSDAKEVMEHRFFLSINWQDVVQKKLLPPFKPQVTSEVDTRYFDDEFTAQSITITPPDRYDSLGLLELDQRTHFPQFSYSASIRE
PHKg2, sequence (P15735 whole entry): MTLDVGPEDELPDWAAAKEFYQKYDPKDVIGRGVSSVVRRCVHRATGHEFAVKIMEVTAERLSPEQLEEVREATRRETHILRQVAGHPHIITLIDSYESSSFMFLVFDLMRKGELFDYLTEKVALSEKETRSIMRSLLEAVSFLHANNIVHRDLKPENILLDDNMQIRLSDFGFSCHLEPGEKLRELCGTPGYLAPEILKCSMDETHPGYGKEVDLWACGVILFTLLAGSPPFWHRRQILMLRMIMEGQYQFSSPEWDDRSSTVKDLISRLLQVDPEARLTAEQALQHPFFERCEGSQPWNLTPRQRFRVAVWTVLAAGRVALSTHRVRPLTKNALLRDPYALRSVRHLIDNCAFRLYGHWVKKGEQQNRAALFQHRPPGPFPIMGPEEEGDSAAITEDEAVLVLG
IKKe/IKBKE, sequence (Q14164 whole entry): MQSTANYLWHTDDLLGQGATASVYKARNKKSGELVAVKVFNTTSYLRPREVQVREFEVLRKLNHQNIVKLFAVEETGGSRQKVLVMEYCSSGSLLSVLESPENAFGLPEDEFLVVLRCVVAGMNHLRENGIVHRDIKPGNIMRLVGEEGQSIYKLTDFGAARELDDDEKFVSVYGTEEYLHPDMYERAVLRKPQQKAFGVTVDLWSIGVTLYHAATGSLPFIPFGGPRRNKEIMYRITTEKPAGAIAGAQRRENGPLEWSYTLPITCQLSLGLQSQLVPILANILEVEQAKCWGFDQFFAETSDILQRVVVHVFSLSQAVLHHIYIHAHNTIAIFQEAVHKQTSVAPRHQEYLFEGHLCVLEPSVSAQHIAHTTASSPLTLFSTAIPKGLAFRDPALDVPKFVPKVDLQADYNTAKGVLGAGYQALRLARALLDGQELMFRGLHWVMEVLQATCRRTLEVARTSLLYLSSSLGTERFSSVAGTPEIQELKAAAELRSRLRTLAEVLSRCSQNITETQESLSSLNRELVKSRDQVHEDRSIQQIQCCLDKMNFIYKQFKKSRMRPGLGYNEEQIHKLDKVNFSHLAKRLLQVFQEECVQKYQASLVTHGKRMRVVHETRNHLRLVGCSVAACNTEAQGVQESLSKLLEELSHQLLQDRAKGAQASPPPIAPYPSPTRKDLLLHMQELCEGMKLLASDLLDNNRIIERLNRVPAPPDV
Aurora B, sequence (Q96GD4 whole entry): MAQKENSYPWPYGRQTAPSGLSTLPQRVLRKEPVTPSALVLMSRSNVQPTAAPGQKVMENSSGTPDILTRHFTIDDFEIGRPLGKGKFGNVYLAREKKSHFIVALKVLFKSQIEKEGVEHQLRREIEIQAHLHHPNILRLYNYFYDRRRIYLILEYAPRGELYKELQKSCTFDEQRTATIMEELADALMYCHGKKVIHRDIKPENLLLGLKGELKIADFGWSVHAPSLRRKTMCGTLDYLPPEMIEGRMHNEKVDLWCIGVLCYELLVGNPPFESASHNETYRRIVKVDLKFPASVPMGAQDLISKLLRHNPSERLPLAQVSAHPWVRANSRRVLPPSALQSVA
MLK3/MAP3K11, sequence (Q16584 whole entry): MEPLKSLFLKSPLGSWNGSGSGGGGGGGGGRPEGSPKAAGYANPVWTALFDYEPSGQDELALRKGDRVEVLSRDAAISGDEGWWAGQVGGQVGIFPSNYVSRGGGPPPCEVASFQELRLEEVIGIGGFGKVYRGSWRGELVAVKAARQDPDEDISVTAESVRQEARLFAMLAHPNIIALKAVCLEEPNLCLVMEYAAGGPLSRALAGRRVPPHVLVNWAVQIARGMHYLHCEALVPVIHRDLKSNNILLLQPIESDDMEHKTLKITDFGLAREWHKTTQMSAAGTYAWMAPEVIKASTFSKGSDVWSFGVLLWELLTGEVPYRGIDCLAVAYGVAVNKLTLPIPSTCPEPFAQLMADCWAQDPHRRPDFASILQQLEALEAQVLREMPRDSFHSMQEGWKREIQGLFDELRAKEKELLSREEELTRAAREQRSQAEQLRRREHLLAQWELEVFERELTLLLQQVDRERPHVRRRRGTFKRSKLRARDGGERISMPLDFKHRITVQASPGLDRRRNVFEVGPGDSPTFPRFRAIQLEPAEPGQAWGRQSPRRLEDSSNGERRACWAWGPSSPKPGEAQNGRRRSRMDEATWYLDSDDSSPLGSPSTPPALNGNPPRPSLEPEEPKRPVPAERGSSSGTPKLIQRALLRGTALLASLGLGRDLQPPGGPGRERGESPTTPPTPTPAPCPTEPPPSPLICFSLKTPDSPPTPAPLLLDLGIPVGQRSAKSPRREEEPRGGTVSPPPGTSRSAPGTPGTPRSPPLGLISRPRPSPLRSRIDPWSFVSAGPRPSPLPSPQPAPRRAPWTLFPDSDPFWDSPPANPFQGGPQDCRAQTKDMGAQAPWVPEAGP
WEE1, sequence (P30291 whole entry): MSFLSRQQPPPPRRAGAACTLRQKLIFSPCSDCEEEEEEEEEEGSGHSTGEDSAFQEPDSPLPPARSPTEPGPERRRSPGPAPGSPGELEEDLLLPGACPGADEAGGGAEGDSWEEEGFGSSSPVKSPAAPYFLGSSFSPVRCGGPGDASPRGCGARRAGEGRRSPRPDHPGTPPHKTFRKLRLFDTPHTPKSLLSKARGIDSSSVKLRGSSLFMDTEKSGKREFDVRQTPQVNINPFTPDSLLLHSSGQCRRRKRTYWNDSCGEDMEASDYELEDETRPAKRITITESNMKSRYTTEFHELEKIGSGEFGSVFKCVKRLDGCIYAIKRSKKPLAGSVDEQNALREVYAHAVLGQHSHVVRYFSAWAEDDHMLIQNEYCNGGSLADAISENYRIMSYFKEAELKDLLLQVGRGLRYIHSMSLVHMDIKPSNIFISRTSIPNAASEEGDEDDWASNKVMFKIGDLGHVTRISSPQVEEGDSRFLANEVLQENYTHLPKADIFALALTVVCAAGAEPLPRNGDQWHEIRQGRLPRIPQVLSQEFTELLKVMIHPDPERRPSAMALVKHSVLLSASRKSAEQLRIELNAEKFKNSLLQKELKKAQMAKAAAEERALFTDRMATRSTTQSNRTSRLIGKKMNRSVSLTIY
SIK3, sequence (Q9Y2K2 whole entry): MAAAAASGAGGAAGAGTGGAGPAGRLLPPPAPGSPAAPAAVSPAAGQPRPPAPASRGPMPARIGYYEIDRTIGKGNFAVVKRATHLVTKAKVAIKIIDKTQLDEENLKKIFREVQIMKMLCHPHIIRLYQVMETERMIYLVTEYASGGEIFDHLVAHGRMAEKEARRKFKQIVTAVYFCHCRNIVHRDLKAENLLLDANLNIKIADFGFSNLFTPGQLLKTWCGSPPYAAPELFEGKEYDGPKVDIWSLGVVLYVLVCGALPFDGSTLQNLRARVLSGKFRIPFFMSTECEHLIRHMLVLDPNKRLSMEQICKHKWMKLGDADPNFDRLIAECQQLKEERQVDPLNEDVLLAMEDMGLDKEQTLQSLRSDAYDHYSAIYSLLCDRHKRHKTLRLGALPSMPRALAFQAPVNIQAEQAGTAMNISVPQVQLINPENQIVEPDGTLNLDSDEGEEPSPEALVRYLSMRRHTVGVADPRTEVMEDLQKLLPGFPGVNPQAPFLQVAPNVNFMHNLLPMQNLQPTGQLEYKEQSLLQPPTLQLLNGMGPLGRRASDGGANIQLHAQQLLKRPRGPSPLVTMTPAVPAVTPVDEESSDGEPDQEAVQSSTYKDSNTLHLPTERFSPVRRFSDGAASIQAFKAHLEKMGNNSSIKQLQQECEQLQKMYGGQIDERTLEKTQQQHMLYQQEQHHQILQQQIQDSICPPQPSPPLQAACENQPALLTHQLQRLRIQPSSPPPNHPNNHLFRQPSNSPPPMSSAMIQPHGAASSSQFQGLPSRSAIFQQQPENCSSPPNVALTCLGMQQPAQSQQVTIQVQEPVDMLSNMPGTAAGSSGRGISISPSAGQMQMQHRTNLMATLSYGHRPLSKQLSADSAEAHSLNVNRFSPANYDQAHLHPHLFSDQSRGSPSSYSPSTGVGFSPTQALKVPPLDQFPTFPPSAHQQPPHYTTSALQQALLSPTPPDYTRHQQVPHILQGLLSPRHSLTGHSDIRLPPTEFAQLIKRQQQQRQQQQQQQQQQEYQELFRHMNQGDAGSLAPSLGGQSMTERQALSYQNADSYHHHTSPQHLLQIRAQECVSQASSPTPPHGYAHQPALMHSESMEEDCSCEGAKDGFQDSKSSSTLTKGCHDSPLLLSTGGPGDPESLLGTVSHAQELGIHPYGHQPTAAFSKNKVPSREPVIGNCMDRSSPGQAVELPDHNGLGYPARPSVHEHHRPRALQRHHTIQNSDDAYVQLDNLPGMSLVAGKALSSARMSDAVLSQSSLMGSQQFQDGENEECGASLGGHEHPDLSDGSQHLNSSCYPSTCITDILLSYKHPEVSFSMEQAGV
TSSK3/STK22C, sequence (Q96PN8 whole entry): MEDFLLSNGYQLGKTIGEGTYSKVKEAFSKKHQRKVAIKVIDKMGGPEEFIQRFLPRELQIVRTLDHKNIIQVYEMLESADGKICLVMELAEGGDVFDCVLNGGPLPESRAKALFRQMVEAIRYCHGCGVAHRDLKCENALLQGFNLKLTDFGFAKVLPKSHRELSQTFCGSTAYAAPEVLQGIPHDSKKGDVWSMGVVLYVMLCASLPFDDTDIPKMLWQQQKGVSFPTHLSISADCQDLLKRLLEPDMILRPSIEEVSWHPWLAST

**Q.** What does the source list for `C#C[C@@](C)(c1ccc(Cl)cc1)c1csc(NC(=O)c2c(F)cc(N3CCNCC3)cc2F)n1` (stereo in doubt) [DF-003]?
**A.** remaining activity at 10 µM (CDK16/cyclin Y (PCTAIRE)): 91.8%; remaining activity at 10 µM (COT1/MAP3K8): 20.7%; remaining activity at 10 µM (RIPK4): 48.3%; remaining activity at 10 µM (TSSK3/STK22C): 53.7%; remaining activity at 10 µM (CAMK1g): 56.6%; remaining activity at 10 µM (RON/MST1R): 61.5%; remaining activity at 10 µM (LOK/STK10): 62.4%; remaining activity at 10 µM (NEK2): 68.6%; remaining activity at 10 µM (TXK): 73.7%; remaining activity at 10 µM (DMPK2): 74%; remaining activity at 10 µM (PHKg2): 74.2%; remaining activity at 10 µM (Aurora B): 76.5%; remaining activity at 10 µM (CK1epsilon): 76.9%; remaining activity at 10 µM (MLK3/MAP3K11): 77.8%; remaining activity at 10 µM (SIK3): 79.6%; remaining activity at 10 µM (NEK5): 83.4%; remaining activity at 10 µM (ASK1/MAP3K5): 83.8%; remaining activity at 10 µM (DDR1): 85.1%; remaining activity at 10 µM (MRCKa/CDC42BPA): 85.9%; remaining activity at 10 µM (PRKX): 87.4%; remaining activity at 10 µM (RSK3): 88.8%; remaining activity at 10 µM (PBK/TOPK): 90.5%; remaining activity at 10 µM (CK1G3): 92.5%; remaining activity at 10 µM (AKT2): 93.6%; remaining activity at 10 µM (SBK1): 94.3%; remaining activity at 10 µM (EPHA5): 95.5%; remaining activity at 10 µM (ERBB2/HER2): 95.9%; remaining activity at 10 µM (CDK5/P25): 98.6%; remaining activity at 10 µM (STK32B/YANK2): 99.6%; remaining activity at 10 µM (PDK4/PDHK4): 103%; remaining activity at 10 µM (IKKe/IKBKE): 104%; remaining activity at 10 µM (PAK5): 104%; remaining activity at 10 µM (IR): 104%; remaining activity at 10 µM (MKK6): 105%; remaining activity at 10 µM (STK21/CIT): 108%; remaining activity at 10 µM (GRK6): 117%; remaining activity at 10 µM (WEE1): 125%; remaining activity at 10 µM (FAK/PTK2): 128%; remaining activity at 10 µM (LYN): 137%
